According to ChEMBL document CHEMBL1201862, “PubChem BioAssay data set” (2004):
Where “and” joins values, the source holds several entries; their conditions need not be identical. Equal values may be shown once.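 A five-concentration, 48-hour dose response in 96-well plates underlies each endpoint, interpolated linearly between surrounding concentrations. GI50 = concentration required for 50% inhibition of growth.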 Calls of active or inactive are those of the source. Rule as the data show it: active = GI50 up to about 1.1 µM and inactive = higher. Where a SMILES comes first, the peptide text is derived from it. [ ]: non-standard residue; d: D form. The star is where a group is joined. Bn2Val = CC(C)[C@@H](C(=O)*)N(Cc1ccccc1)Cc1ccccc1; NH(4-F-benzyl) = Fc1ccc(CN*)cc1; NMeV = CN[C@H](C(=O)O)C(C)C; dNMeA = CN[C@H](C)C(=O)O

How the values were obtained:
Assay in all cases: NCI-60 cell line screen, 48 h
[1] = system: 786-0
[2] = system: A498
[3] = system: A549
[4] = system: ACHN
[5] = system: BT-549
[6] = system: CAKI-1
[7] = system: CCRF-CEM
[8] = system: COLO 205
[9] = system: DU-145
[10] = system: EKVX
[11] = system: HCC 2998
[12] = system: HCT-116
[13] = system: HCT-15
[14] = system: HL-60
[15] = system: HOP-62
[16] = system: HOP-92
[17] = system: HT-29
[18] = system: Hs-578T
[19] = system: IGROV-1
[20] = system: K562
[21] = system: KM12
[22] = system: LOX IMVI
[23] = system: M14
[24] = system: MCF7
[25] = system: MDA-MB-231
[26] = system: MDA-MB-435
[27] = system: MDA-N
[28] = system: MOLT-4
[29] = system: Malme-3M
[30] = system: NCI-H226
[31] = system: NCI-H23
[32] = system: NCI-H460
[33] = system: NCI-H522
[34] = system: NCI/ADR-RES
[35] = system: OVCAR-3
[36] = system: OVCAR-4
[37] = system: OVCAR-5
[38] = system: OVCAR-8
[39] = system: PC-3
[40] = system: RPMI-8226
[41] = system: RXF 393
[42] = system: SF-268
[43] = system: SF-295
[44] = system: SF-539
[45] = system: SK-MEL-28
[46] = system: SK-MEL-2
[47] = system: SK-MEL-5
[48] = system: SK-OV-3
[49] = system: SN12C
[50] = system: SNB-19
[51] = system: SNB-75
[52] = system: SR
[53] = system: SW-620
[54] = system: T47D
[55] = system: TK-10
[56] = system: U-251
[57] = system: UACC-257
[58] = system: UACC-62
[59] = system: UO-31
[60] = system: DMS-273
[61] = system: M19-MEL

CC(C)[C@H](NC(=O)[C@H](C(C)C)N(Cc1ccccc1)Cc1ccccc1)C(=O)N(C)[C@H](C(=O)N1CCC[C@H]1C(=O)N(C)[C@H](C)C(=O)NCc1ccc(F)cc1)C(C)C (Bn2Val-V[NMeV]P[dNMeA]-{NH(4-F-benzyl)})
GI50 [1]: 4.23 µM (inactive)
GI50 [2]: 2.42 µM (inactive)
GI50 [3]: 3.3 µM (inactive)
GI50 [4]: 3.33 µM (inactive)
GI50 [5]: 4.06 µM (inactive)
GI50 [6]: 5.13 µM (inactive)
GI50 [7]: 3.65 µM (inactive)
GI50 [8]: 1.74 µM (inactive)
GI50 [9]: 4.88 µM (inactive)
GI50 [10]: 3.09 µM (inactive)
GI50 [11]: 3.48 µM (inactive)
GI50 [12]: 2.97 µM (inactive)
GI50 [13]: 3.79 µM
GI50 [14]: 2.54 µM (inactive)
GI50 [15]: 5.47 µM (inactive)
GI50 [16]: 2.97 µM (inactive)
GI50 [17]: 1.95 µM (inactive)
GI50 [18]: 4.5 µM (inactive)
GI50 [19]: 3.19 µM (inactive)
GI50 [20]: 3.78 µM (inactive)
GI50 [21]: 4.24 µM (inactive)
GI50 [22]: 1.85 µM (inactive)
GI50 [23]: 3.05 µM (inactive)
GI50 [24]: 2.72 µM (inactive)
GI50 [25]: 3.55 µM (inactive)
GI50 [26]: 3.67 µM (inactive)
GI50 [27]: 4.29 µM (inactive)
GI50 [28]: 2.55 µM (inactive)
GI50 [29]: 3.63 µM (inactive)
GI50 [30]: 2.65 µM (inactive)
GI50 [31]: 3.82 µM (inactive)
GI50 [32]: 4 µM (inactive)
GI50 [33]: 3.01 µM (inactive)
GI50 [34]: 4.38 µM (inactive)
GI50 [35]: 2.88 µM (inactive)
GI50 [36]: 4.28 µM (inactive)
GI50 [37]: 3.59 µM (inactive)
GI50 [38]: 4.01 µM (inactive)
GI50 [39]: 3.18 µM (inactive)
GI50 [40]: 3.27 µM (inactive)
GI50 [41]: 2.34 µM (inactive)
GI50 [42]: 3.19 µM (inactive)
GI50 [43]: 3.44 µM (inactive)
GI50 [44]: 2.71 µM (inactive)
GI50 [45]: 7.29 µM (inactive)
GI50 [46]: 2.12 µM (inactive)
GI50 [47]: 2.22 µM (inactive)
GI50 [48]: 5.35 µM (inactive)
GI50 [49]: 3.15 µM (inactive)
GI50 [50]: 4.88 µM (inactive)
GI50 [51]: 4.07 µM (inactive)
GI50 [52]: 2.14 µM (inactive)
GI50 [53]: 4.25 µM (inactive)
GI50 [54]: 3.82 µM (inactive)
GI50 [55]: 5.48 µM (inactive)
GI50 [56]: 3.3 µM (inactive)
GI50 [57]: 5.19 µM (inactive)
GI50 [58]: 2.96 µM (inactive)
GI50 [59]: 2.19 µM (inactive)

CC1(C)O[C@@H]2C[C@H]3[C@@H]4C[C@H](F)C5=CC(=O)C=C[C@]5(C)[C@@]4(F)[C@@H](O)C[C@]3(C)[C@]2(C(=O)CO)O1 [FLUOCINOLONE ACETONIDE]
GI50 [1]: > 100 µM (inactive)
GI50 [2]: > 100 µM (inactive)
GI50 [3]: > 100 µM (inactive)
GI50 [4]: > 100 µM (inactive)
GI50 [5]: > 100 µM (inactive)
GI50 [6]: > 100 µM (inactive)
GI50 [7]: < 0.01 µM (active)
GI50 [8]: > 100 µM (inactive)
GI50 [9]: > 100 µM (inactive)
GI50 [10]: > 100 µM (inactive)
GI50 [11]: > 100 µM (inactive)
GI50 [12]: > 100 µM (inactive)
GI50 [13]: > 100 µM
GI50 [14]: > 100 µM (inactive)
GI50 [15]: > 100 µM (inactive)
GI50 [16]: > 100 µM (inactive)
GI50 [17]: > 100 µM (inactive)
GI50 [18]: > 100 µM (inactive)
GI50 [19]: > 100 µM (inactive)
GI50 [20]: > 100 µM (inactive)
GI50 [21]: > 100 µM (inactive)
GI50 [22]: > 100 µM (inactive)
GI50 [23]: > 100 µM (inactive)
GI50 [24]: > 100 µM (inactive)
GI50 [25]: > 100 µM (inactive)
GI50 [26]: > 100 µM (inactive)
GI50 [27]: > 100 µM (inactive)
GI50 [28]: > 83.8 µM (inactive)
GI50 [29]: > 100 µM (inactive)
GI50 [30]: > 85.1 µM (inactive)
GI50 [31]: > 100 µM (inactive)
GI50 [32]: > 100 µM (inactive)
GI50 [33]: > 100 µM (inactive)
GI50 [34]: > 100 µM (inactive)
GI50 [35]: > 100 µM (inactive)
GI50 [36]: > 89.1 µM (inactive)
GI50 [37]: > 100 µM (inactive)
GI50 [38]: > 100 µM (inactive)
GI50 [39]: > 72.6 µM (inactive)
GI50 [40]: < 0.01 µM (active)
GI50 [41]: > 100 µM (inactive)
GI50 [42]: > 100 µM (inactive)
GI50 [43]: > 100 µM (inactive)
GI50 [44]: > 100 µM (inactive)
GI50 [45]: > 100 µM (inactive)
GI50 [46]: > 100 µM (inactive)
GI50 [47]: > 100 µM (inactive)
GI50 [48]: > 72.3 µM (inactive)
GI50 [49]: 12 µM (inactive)
GI50 [50]: > 100 µM (inactive)
GI50 [51]: > 100 µM (inactive)
GI50 [52]: > 100 µM (inactive)
GI50 [53]: > 100 µM (inactive)
GI50 [54]: > 100 µM (inactive)
GI50 [55]: > 100 µM (inactive)
GI50 [56]: > 100 µM (inactive)
GI50 [57]: > 89.3 µM (inactive)
GI50 [58]: > 100 µM (inactive)
GI50 [59]: > 87.5 µM (inactive)

C/C=C/C=C/CCCCCCCCCCCCC[C@]1(OC)C=C[C@@H](CC(=O)OC)OO1 [XESTIN A]
GI50 [60]: 1.57 µM (inactive)
GI50 [12]: 16.1 µM (inactive) and 10.1 µM (inactive)
GI50 [14]: 3.59 µM (inactive)
GI50 [16]: 1.88 µM (inactive)
GI50 [20]: 12.2 µM (inactive) and 20.5 µM (inactive)
GI50 [23]: 14.8 µM (inactive) and 17 µM (inactive)
GI50 [61]: 16.9 µM (inactive) and 11 µM (inactive)
GI50 [29]: 26.7 µM (inactive) and 21.4 µM (inactive)
GI50 [32]: 22.4 µM (inactive) and 15.1 µM (inactive)
GI50 [40]: 7.45 µM (inactive) and 13.5 µM (inactive)
GI50 [42]: 17.3 µM (inactive) and 21.7 µM (inactive)
GI50 [44]: 15.2 µM (inactive) and 19.7 µM (inactive)
GI50 [45]: 15.3 µM (inactive) and 17.5 µM (inactive)
GI50 [46]: 15.5 µM (inactive) and 25.5 µM (inactive)
GI50 [47]: 15.6 µM (inactive) and 10.1 µM (inactive)
GI50 [48]: 28.6 µM (inactive) and 19.5 µM (inactive)
GI50 [49]: 12.9 µM (inactive) and 21.6 µM (inactive)
GI50 [50]: 17.8 µM (inactive)
GI50 [51]: 17.4 µM (inactive) and 9.64 µM (inactive)
GI50 [52]: 2.36 µM (inactive)
GI50 [56]: 14.7 µM (inactive) and > 10 µM (inactive)
GI50 [57]: 20.2 µM (inactive) and 17.4 µM (inactive)
GI50 [58]: 14.1 µM (inactive) and 15.3 µM (inactive)
GI50 [59]: 2.77 µM (inactive)
